According to PubChem BioAssay (NCI):
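Each compound was tested at five concentrations against cells in 96-well plates for 48 hours. The concentration for 50% growth inhibition is given as GI50. The concentration for full growth arrest is given as TGI.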

Tests used:
Experiment in all cases: NCI anticancer screen, dose series, 48 h
[1] = tested on: 786-0 renal
[2] = tested on: A498 renal
[3] = tested on: A549 NSCLC
[4] = tested on: ACHN renal
[5] = tested on: BT-549 breast
[6] = tested on: CAKI-1 renal
[7] = tested on: CCRF-CEM leukemia
[8] = tested on: COLO 205 colon
[9] = tested on: DU-145 prostate
[10] = tested on: HCC-2998 colon
[11] = tested on: HCT-116 colon
[12] = tested on: HCT-15 colon
[13] = tested on: HL-60(TB) leukemia
[14] = tested on: HOP-62 NSCLC
[15] = tested on: HOP-92 NSCLC
[16] = tested on: HS 578T breast
[17] = tested on: HT29 colon
[18] = tested on: IGROV1 ovarian
[19] = tested on: KM12 colon
[20] = tested on: LOX IMVI melanoma
[21] = tested on: M14 melanoma
[22] = tested on: MCF7 breast
[23] = tested on: MDA-MB-231 breast
[24] = tested on: MDA-MB-435
[25] = tested on: MOLT-4 leukemia
[26] = tested on: NCI-H226 lung
[27] = tested on: NCI-H23 lung
[28] = tested on: NCI-H460 lung
[29] = tested on: NCI-H522 lung
[30] = tested on: NCI/ADR-RES ovarian
[31] = tested on: OVCAR-3 ovarian
[32] = tested on: OVCAR-4 ovarian
[33] = tested on: PC-3 prostate
[34] = tested on: RPMI-8226 leukemia
[35] = tested on: SF-268 CNS
[36] = tested on: SF-295 CNS
[37] = tested on: SF-539 CNS
[38] = tested on: SK-MEL-2 melanoma
[39] = tested on: SK-MEL-28 melanoma
[40] = tested on: SK-MEL-5 melanoma
[41] = tested on: SK-OV-3 ovarian
[42] = tested on: SN12C renal
[43] = tested on: SNB-19 CNS
[44] = tested on: SNB-75 CNS
[45] = tested on: SR leukemia
[46] = tested on: SW-620 colon
[47] = tested on: T-47D breast
[48] = tested on: TK-10 renal
[49] = tested on: U251 CNS
[50] = tested on: UACC-257 melanoma
[51] = tested on: UACC-62 melanoma
[52] = tested on: UO-31 renal
[53] = tested on: EKVX NSCLC
[54] = tested on: K-562 leukemia
[55] = tested on: OVCAR-5 ovarian
[56] = tested on: OVCAR-8 ovarian
[57] = tested on: RXF 393 renal

In the case of COc1ccc2nc3cc(Cl)ccc3c(NCCCCCN3CCCCC3)c2c1, the GI50 [1] is reported as 0.056 µM, the TGI [1] is reported as 1.95 µM and the GI50 [2] is reported as 0.0114 µM. The TGI [2] was 1.88 µM, the GI50 [3] was 0.068 µM and the TGI [3] was 2.73 µM. It also gave a GI50 [4] of 0.0447 µM, a TGI [4] of 2.84 µM and a GI50 [5] of 1.72 µM. For the same compound, the TGI [5] was 3.28 µM, the GI50 [6] was 1.33 µM and the TGI [6] was 4.03 µM. For the same compound, the GI50 [7] was 0.073 µM, the TGI [7] was 6.38 µM and the GI50 [8] was 0.0668 µM. It also gave a TGI [8] of 2.32 µM, a GI50 [9] of 0.0558 µM and a TGI [9] of 2.46 µM. For the same compound, the GI50 [10] was 0.0673 µM, the TGI [10] was 2.05 µM and the GI50 [11] was 0.0435 µM. It also gave a TGI [11] of 1.91 µM, a GI50 [12] of 0.0412 µM and a TGI [12] of 1.85 µM. The GI50 [13] was 1.55 µM, the TGI [13] was 3.54 µM and the GI50 [14] was 0.0654 µM. For the same compound, the TGI [14] was 2.63 µM, the GI50 [15] was 1.62 µM and the TGI [15] was 4.1 µM. The GI50 [16] was 1.82 µM, the TGI [16] was 4.5 µM and the GI50 [17] was 0.0338 µM. The TGI [17] was 1.59 µM, the GI50 [18] was 0.0888 µM and the TGI [18] was 4.1 µM. It also gave a GI50 [19] of 0.0576 µM, a TGI [19] of 2.7 µM and a GI50 [20] of 0.0355 µM. For the same compound, the TGI [20] was 1.44 µM, the GI50 [21] was 1.65 µM and the TGI [21] was 3.15 µM. For the same compound, the GI50 [22] was 0.0408 µM, the TGI [22] was 2.13 µM and the GI50 [23] was 1.01 µM. It also gave a TGI [23] of 3.1 µM, a GI50 [24] of 1.37 µM and a TGI [24] of 2.73 µM. It also gave a GI50 [25] of 0.0416 µM, a TGI [25] of 3.12 µM and a GI50 [26] of 1.1 µM. It also gave a TGI [26] of 3.33 µM, a GI50 [27] of 1.09 µM and a TGI [27] of 2.85 µM. For the same compound, the GI50 [28] was 0.0361 µM, the TGI [28] was 1.45 µM and the GI50 [29] was 1.44 µM. For the same compound, the TGI [29] was 3.27 µM, the GI50 [30] was 0.0825 µM and the TGI [30] was 4.24 µM. For the same compound, the GI50 [31] was 0.123 µM, the TGI [31] was 2.24 µM and the GI50 [32] was 0.086 µM. For the same compound, the TGI [32] was 3.01 µM, the GI50 [33] was 1.07 µM and the TGI [33] was 4.51 µM. The GI50 [34] was 1.95 µM, the TGI [34] was 6.32 µM and the GI50 [35] was 1.03 µM. The TGI [35] was 2.88 µM, the GI50 [36] was 0.0502 µM and the TGI [36] was 1.91 µM. For the same compound, the GI50 [37] was 0.0559 µM, the TGI [37] was 2.29 µM and the GI50 [38] was 2.22 µM. The TGI [38] was 4.04 µM, the GI50 [39] was 1.86 µM and the TGI [39] was 3.67 µM. It also gave a GI50 [40] of 1.6 µM, a TGI [40] of 2.96 µM and a GI50 [41] of 1.26 µM. The TGI [41] was 3.1 µM, the GI50 [42] was 0.0763 µM and the TGI [42] was 4.7 µM. The GI50 [43] was 1.14 µM, the TGI [43] was 5.54 µM and the GI50 [44] was 1.27 µM. It also gave a TGI [44] of 2.56 µM, a GI50 [45] of 0.0314 µM and a TGI [45] of 2.13 µM. It also gave a GI50 [46] of 0.0369 µM, a TGI [46] of 2.16 µM and a GI50 [47] of 1.94 µM. For the same compound, the TGI [47] was 4.58 µM, the GI50 [48] was 1.57 µM and the TGI [48] was 3.66 µM. The GI50 [49] was 1.31 µM, the TGI [49] was 3.1 µM and the GI50 [50] was 1.94 µM. It also gave a TGI [50] of 3.77 µM, a GI50 [51] of 2.07 µM and a TGI [51] of 3.93 µM. The GI50 [52] was 1.43 µM and the TGI [52] was 3.7 µM.

CN(C)CCNc1ccc(NCCN(C)C)c2c1C(=O)c1ncsc1C2=O was tested, and the TGI [1] was 24 µM, the TGI [2] was 28.1 µM and the TGI [3] was 31.3 µM. It also gave a TGI [4] of 22.7 µM, a TGI [5] of 35.1 µM and a TGI [6] of 57.5 µM. It also gave a TGI [7] of 10.9 µM, a TGI [8] of 31.1 µM and a TGI [9] of 25.9 µM. For the same compound, the TGI [53] was 26.4 µM, the TGI [10] was 31.3 µM and the TGI [11] was 22.7 µM. For the same compound, the TGI [12] was 27.6 µM, the TGI [14] was 43.6 µM and the TGI [15] was 29.9 µM. It also gave a TGI [16] of 50.3 µM, a TGI [17] of 19.7 µM and a TGI [18] of 28.1 µM. It also gave a TGI [54] of 34.3 µM, a TGI [19] of 25.2 µM and a TGI [20] of 29.5 µM. It also gave a TGI [21] of 36.6 µM, a TGI [22] of 21.3 µM and a TGI [23] of 32.2 µM. The TGI [24] was 27.8 µM, the TGI [25] was 5.57 µM and the TGI [26] was 17.7 µM. The TGI [27] was 30 µM, the TGI [29] was 31.7 µM and the TGI [30] was > 100 µM. For the same compound, the TGI [31] was 37.2 µM, the TGI [32] was 25.1 µM and the TGI [55] was 55.3 µM. For the same compound, the TGI [56] was 27.8 µM, the TGI [33] was 38.1 µM and the TGI [34] was 29.4 µM. For the same compound, the TGI [57] was 41 µM, the TGI [35] was 39.3 µM and the TGI [36] was 26.6 µM. For the same compound, the TGI [37] was 28.1 µM, the TGI [38] was 42.7 µM and the TGI [39] was 33.7 µM. For the same compound, the TGI [40] was 31.6 µM, the TGI [41] was 38.8 µM and the TGI [42] was 25.7 µM. It also gave a TGI [43] of 51 µM, a TGI [44] of 33 µM and a TGI [45] of 4.39 µM. For the same compound, the TGI [46] was 29.7 µM, the TGI [47] was > 100 µM and the TGI [48] was 58.2 µM. For the same compound, the TGI [49] was 29.7 µM, the TGI [50] was 34.7 µM and the TGI [51] was 24.6 µM. For the same compound, the TGI [52] was 32.2 µM.
